US20050203063A1, “Proteasome pathway inhibitors and related methods” (priority 2003, published 2005)
“Also recorded” adds a separate entry of the source. Like-named read-outs stand apart in the source and are kept apart here.

Tests used:
[1] = system: cyclin-luciferase (cyc-luc) turnover, activated APC/C; assay: cyc-luc turnover in mitotic Xenopus extracts (pre-treated with non-degradable cyclin B); type: biochemical; settings: 200 μM compound; extracts in mitosis before addition of compound
Experimental: (§1) FIG. 1. Functional classification of inhibitors. Compounds that scored in the initial screen were reacquired as dry powders and retested in Xenopus extracts in 4 assays at 200 μM concentration (32) as described (6). […] (A) Compounds and cyclin-luciferase were added to interphase extracts, which were then induced to enter mitosis by addition of non-degradable cyclin B. Percent inhibition of cyc-luc turnover by each compound is coded according to the grayscale shown at the bottom of the figure; specific values are available in Table 1. (B) Extracts were pre-treated with non-degradable cyclin B to allow entry into mitosis prior to addition of test compound and reporter protein. (C) Interphase extracts were treated by addition of recombinant Cdh1 to activate cyc-luc turnover. (D) Interphase extracts were treated with recombinant axin to induce turnover of β-catenin-luciferase.
(§2) The “Cmpd” column corresponds to the numbers used in FIG. 1; “Class” refers to the class of inhibitor described in FIG. 1 and the text. Columns A-D show percent inhibition in the four assays described in FIG. 1. (A) Interphase extracts (B) Mitotic extracts (C) Interphase extracts stimulated with Cdh1 (D) Degradation of a β-catenin reporter protein in interphase extracts stimulated with recombinant axin. […] “ID#” refers to the identification number of the inhibitor obtained from the NCI (prefaced by NSC) or Chembridge (prefaced by C).
(§3) Dry compounds were redissolved at 20 mM concentration in DMSO, or a 50:50 water:DMSO mixture in certain cases. These compounds were then diluted ten-fold in XB and mixed thoroughly. For the assay in FIG. 1A, chilled interphase extract was mixed with cyclin BΔ90 (10 μg/ml) and cyc-luc (0.1 μg/ml) in bulk and then 27 μl of extract was pipetted to each well of a chilled 384-well plate. Three microliters of each compound (diluted in XB) was then added to each well, and then compounds mixed thoroughly. Plates were warmed to room temperature. After 70 minutes, 5 μl aliquots were transferred to another plate, and then 30 μl of luciferin reagent was added to each well and luminescence measured. Percent inhibition was calculated as described above. The reported values represent the average of three independent measurments. For the assay in FIG. 1B, interphase extracts were treated with 10 μg/cyclin B 90 for 50 minutes at room temperature and then chilled on ice. Cyc-luc was then added, and then 27 μl of extract was pipetted to each well of a chilled 384-well plate. Three microliters of each compound (diluted in XB) was then added to each well, and then compounds mixed thoroughly. Plates were warmed to room temperature. After 60 minutes, 5 μl aliquots were transferred to another plate, and then 30 μl of luciferin reagent was added to each well and luminescence measured. For the assay in FIG. 1C, recombinant Cdh1 (0.1 μg/ml) and cyc-luc were added to chilled interphase extracts. Extracts were then pipetted and compounds added as above. Plates were warmed to room temperature and incubated for three hours, following which luminescence was measured as above. For the assay in FIG. 1D, chilled interphase extracts received recombinant axin and beta-catenin-luciferase reporter as described (8). Extracts were aliquoted to chilled plates and compounds distributed as described above. Plates were warmed to room temperature, incubated for three hours, and luminescence measured.

[2] = system: β-catenin-luciferase turnover (substrate of the SCFβ-TRCP ubiquitin ligase); assay: β-catenin-luciferase turnover in interphase Xenopus extracts stimulated with recombinant axin; type: biochemical; settings: 200 μM compound
Experimental: as §1, §2, §3

26S proteasomes = assay: Degradation of UbSic1 by purified 26S proteasomes; type: biochemical, S. cerevisiae; settings: concentrations as low as 10 μM
Experimental: FIG. 2. […] (A) Degradation of UbSic1. Purified 26S proteasomes were preincubated in the presence or absence of test compounds. UbSic1 was then added, and degradation assayed as described (6). Py mock refers to the pyridine solvent in which C23 was dissolved which was marginally inhibitory, unlike the 50% DMSO vehicle used for other test compounds. (B) Deubiquitination of UbSic1. […] UbSic1 was then added, and deubiquitination was assayed as described (6). (C) Titration curve with varying concentrations of C92 to determine half-maximal inhibition of deubiquitination. (D) C92 inhibits binding of UbSic1 to 26S proteasomes. Purified 26S proteasomes immobilized on anti-Flag beads were incubated with UbSic1 in the presence or absence of C92 as described (6). Following binding, beads were washed and analyzed by immunoblotting with anti-Sic1 polyclonal serum. (E) Binding of UbSic1 to the polyUb binding proteins Rpn10 and Rad23 is inhibited by C92. Recombinant Gst-Rpn10 and Gst-Rad23 (1 μg each) were immobilized on glutathione sepharose beads and then incubated with UbSic1 in the presence or absence of C92. Following binding, beads were washed and analyzed by immunoblotting. (F) C92 interacts with multiUb chains. Equivalent amounts (5 μg) of purified Gst, Gst-fusion protein or multiUb chains were incubated with C92 or C1 before being loaded on a 5% native polyacryamide gel. Electrophoresis was performed as described (33). (G) C92 and C59 interact specifically with K48-linked Ub on native gels. Ub (16 μM), K48-linked diUb (8 μM), or tetraUb chains (8 μM) were preincubated with a two fold-molar excess (monoUb and diUb), or equivalent amounts (tetraUb) of test compounds before being resolved on native gels as in (G). Tetra K29Ub, K48Ub, and K63Ub refer to tetraubiquitin chains wherein the ubiquitins are linked via K29, K48, or K63.
Sic1 is a Cdk inhibitor in Saccharomyces cerevisiae that must be degraded for cells to enter S-phase (9-11). […]

[3] = molecular target: T1, 20S core peptidase activity (Saccharomyces cerevisiae, UniProt P25043+P30656+P38624); assay: 20S core peptidase activity in native gel with fluorescent substrate; type: biochemical
T1 construct: made in house; host or cells: S. cerevisiae cells expressing Flag-tagged PRE1
Experimental: FIG. 6. […] (A) Purified 26S proteasomes were preincubated with test compounds before being resolved on a native gel. Following electrophoresis, the gel was stained with Coomassie Blue. […] Same as (A), except that following electrophoresis, the gel was incubated with fluorescent substrate to determine peptidase activity, which was visualized using a UV transilluminator (9). […] (C) Untreated 26S proteasomes were resolved on a native gel. Following electrophoresis, the gel was incubated with the peptidase substrate in the presence of ubistatin.
26S proteasomes were purified from S. cerevisiae cells expressing a Flag-tagged proteasomal subunit (PRE1) essentially as described (28).

CC(=O)Nc1ccc(SSc2ccc(NC(C)=O)c3cccnc23)c2ncccc12 [Compound 23]
percent inhibition of cyc-luc turnover, (B) Mitotic extracts [1]: 100%
percent inhibition, (D) Degradation of a β-catenin reporter protein in interphase extracts stimulated with recombinant axin [2]: 27%
inhibitory effect on Sic1 (UbSic1) turnover (26S proteasomes): more modest effect
effect on 20S core peptidase activity [3]: without effect

O=S(=O)(O)c1ccc2cc3c(cc2c1)NN(c1ccc(/C=C/c2ccc(N4Nc5cc6ccc(S(=O)(=O)O)cc6cc5N4)cc2S(=O)(=O)O)c(S(=O)(=O)O)c1)N3 [Compound 59]
percent inhibition of cyc-luc turnover, (B) Mitotic extracts [1]: 100%
percent inhibition, (D) Degradation of a β-catenin reporter protein in interphase extracts stimulated with recombinant axin [2]: 70%
inhibitory effect on Sic1 (UbSic1) turnover (26S proteasomes): strong inhibitory effect
effect on 20S core peptidase activity [3]: without affecting

O=C(Nc1ccc(/C=C/c2ccc(NC(=O)c3cc(S(=O)(=O)O)c4cccnc4c3O)cc2S(=O)(=O)O)c(S(=O)(=O)O)c1)c1cc(S(=O)(=O)O)c2cccnc2c1O [Compound 92]
percent inhibition of cyc-luc turnover, (B) Mitotic extracts [1]: 22%
percent inhibition, (D) Degradation of a β-catenin reporter protein in interphase extracts stimulated with recombinant axin [2]: 21%
inhibitory effect on Sic1 (UbSic1) turnover (26S proteasomes): strong inhibitory effect
effect on 20S core peptidase activity ([3]; listed as C92): does not affect; also recorded: without affecting
